“Also recorded” adds a separate entry of the source. Where two headings read alike, the source gives them in different places. Where a SMILES comes first, the peptide text is derived from it. Bridges are numbered along the chain shown (N, C = ends).
Legend:
Escherichia coli ML-35p = details: salt-containing MHB supplemented with 5% FBS, compared with no FBS
Excerpt: (§1) The results were expressed as the median values determined on the basis of at least three independent experiments performed in triplicate.

[1] = test system: human red blood cells (hRBCs); experiment: Hemolysis, hemoglobin release assay; assay type: cell-based
Method: Figure 3 Biological activity of the peptides towards human cells. (A) Hemolytic effect on human red blood cells (hRBCs) after 2 h incubation (the hemoglobin release assay). (B) Cytotoxicity towards transformed human embryonic kidney cells (HEK293T) after 16 h incubation (the resazurin assay).
The hemolytic activity of the peptides was tested against the fresh suspension of human red blood cells (hRBC) using the hemoglobin release assay, as described previously. Two experiments were performed with hRBC from blood samples of independent donors. The quantitative data are represented as average means with standard deviations. The cytotoxic effect of the peptides was tested on transformed human embryonic kidney cells (HEK293T) using the resazurin assay. The technique is based on the ability of live cell dehydrogenases to reduce a blue resazurin to pink and fluorescent resorufin. A total of 10^4 cells per well in Dulbecco’s modified Eagle’s medium (DMEM/F12) supplemented with 10% FBS were placed into 96-well plates for 24 h in the CO2-incubator (5% CO2, 37 °C). […] Fluorescence of the formed resorufin was measured with the microplate reader AF2200 (Eppendorf, Germany) using the following channel: λExc = 535 nm, λEm = 595 nm. The fluorescence signal in the wells containing cells cultured without the peptides was assumed to represent 100% cell viability. […]

RP-HPLC retention time = assay type: physicochemical; details: semi-preparative RP-HPLC, C18 column, linear gradient 5 to 80% (v/v) acetonitrile in water with 0.1% TFA within 50 min
Method: Figure 2 Structure analysis of the novel BRICHOS-related peptides HfBRI-25 and HfBRI-28. (A) Characteristics of the obtained peptides. ^1 Mean Kyte–Doolittle hydrophobicity index (GRAVY) was calculated using the Expasy ProtParam tool. The maximum and minimum values of this index are +4.5 and −4.5 for poly-Ile and poly-Arg sequences, respectively. ^2 Percentage of hydrophobic amino acids was calculated using the APD3 database. ^3 Retention times were measured using semi-preparative reversed-phase high-performance liquid chromatography (RP-HPLC) on a C18 column with a linear gradient from 5 to 80% (v/v) acetonitrile in water containing 0.1% trifluoroacetic acid (TFA) within 50 min. ^4 Molecular masses were calculated by considering the presence of four Cys residues forming two disulfide bonds in the case of HfBRI-25. ^5 Molecular masses were determined experimentally using MALDI-TOF mass spectrometry. (B) Spatial structures of HfBRI-25 and HfBRI-28 were modeled using the AlphaFold algorithm (ColabFold server). The top-rated models, according to predicted local distance difference test (pLDDT) scores, were visualized by the PyMOL software. (C) The CD-spectra of the peptides in water or in the presence of 30 mM DPC micelles. (D) The CONTINLL program was used for CD data analysis. […]

[2] = test system: E. coli ML-35p cytoplasmic membrane; experiment: Cytoplasmic membrane permeabilization, ONPG hydrolysis; assay type: cell-based, Escherichia coli; details: at concentrations ≥ MIC values, PBS, 37 °C, ONPG 2.5 mM, OD405
Method: Cationic AMPs perform their antibacterial function by damaging membrane integrity and/or specifically inhibiting intracellular processes. In this study, an effect of the obtained peptides on bacterial cytoplasmic membrane integrity was analyzed with the use of E. coli ML-35p, the strain constitutively expressing β-galactosidase and lacking the functional lactose permease which is necessary for the uptake of o-nitrophenyl-β-D-galactoside (ONPG). When β-galactosidase cleaves ONPG, β-D-galactose and o-nitrophenol are released. The latter is a chromogenic product with absorbance at 405 nm. […] Thus, the rapid membranolytic mode of action seems to be predominant for the HfBRI-28 peptide.
Figure 4 Kinetics of changes in the E. coli ML35p cytoplasmic membrane permeability measured with the use of ONPG (OD405) hydrolysis caused by the examined peptides. Peptide concentrations (μM) are presented within the dashed box. […]
To examine the ability of the peptides to affect the barrier function of inner membrane of Gram-negative bacteria, we used the E. coli ML-35p strain constitutively expressing cytoplasmic β-galactosidase but lacking lactose permease. The state of the E. coli ML-35p cytoplasmic membrane was assessed based on its permeability to chromogenic marker o-nitrophenyl-β-D-galactopyranoside (ONPG, AppliChem), which is the β-galactosidase substrate. […]

E. coli ATCC 25922 = details: BALB/c mice, n = 5, i.p. infection 10^6 CFU with 2.5% mucin; 10 mg/kg i.p. at 1 h and 4 h after infection; 7 days
[3] = test system: E. coli K12 SBS 1936 biofilm; experiment: Effect on established biofilm, MTT assay; assay type: cell-based, Escherichia coli; details: wide concentration range, 24 h pre-formed biofilm, 16 h treatment in LB, 37 °C
Method: Bacterial biofilms play an important role in UTIs, being responsible for their persistence. Therefore, the eradication of mature biofilms is an extremely challenging task because high concentrations or doses of antibacterial agents are required. Here, the ability of HfBRI-25 to disrupt established biofilms was evaluated as a number of viable bacteria in biofilm using the MTT assay. According to our previous data, E. coli K12 SBS 1936 was chosen as a strong biofilm-producer that can form it in different media.
E. coli K12 SBS1936 was grown in LB broth overnight at 37 °C and diluted in the same media to obtain 1 × 10^6 CFU/mL. A total of 100 μL of bacterial suspension was added to each well of the 96-well polystyrene plate and grown at 32 °C and 120 rpm for 24 h. The wells were washed twice with sterile water to remove non-adherent cells. In parallel, 100 μL of peptide or ciprofloxacin solutions, serially diluted in LB medium using a separate 96-well polystyrene plate, were added to each well with pre-formed biofilm and incubated at 37 °C and 180 rpm for 16 h. Biofilm viability was assessed by using the MTT reagent (Sigma). […] Absorbance of each well was measured at 570 nm. Bacterial survival was calculated as a percentage relative to samples without antimicrobial agent. […]

[4] = 25% human serum in PBS pH 7.4, 37 °C, RP-HPLC, ratio estimated from MALDI-TOF MS, two independent experiments
trypsin = trypsin in 100 mM Tris/HCl buffer (pH 8.0); details: 37 °C, up to 16 h
[5] = 25% human serum in PBS (pH 7.4) from healthy donor; details: 37 °C, up to 24 h
E. coli MDR CI 1057 = details: Mueller–Hinton broth supplemented with 0.9% NaCl, 37 °C
Method: Resistance induction experiments were performed using the previously described method. Briefly, on day one, the overnight culture of wild-type bacteria was diluted with the 2× MH broth supplemented with 1.8% NaCl to reach a final cell concentration of 10^6 CFU/mL.

[6] = test system: E. coli strains with the MCR-1-mediated colistin resistance; experiment: MIC against strains with MCR-1-mediated colistin resistance; assay type: cell-based, Escherichia coli; details: two strains with MCR-1-mediated colistin resistance; medium not stated
Excerpt: as §1

With `CC[C@H](C)[C@H](NC(=O)CNC(=O)[C@H](CCCCN)NC(=O)[C@H](Cc1c[nH]c2ccccc12)NC(=O)[C@@H](NC(=O)[C@H](CO)NC(=O)[C@H](CCCCN)NC(=O)[C@H](CC(C)C)NC(=O)[C@H](Cc1c[nH]c2ccccc12)NC(=O)CN)[C@@H](C)CC)C(=O)N[C@@H](CCCCN)C(=O)N[C@@H](CCCCN)C(=O)N[C@@H](C)C(=O)N[C@H](C(=O)N[C@@H](CCCCN)C(=O)N[C@@H](Cc1c[nH]c2ccccc12)C(=O)N[C@H](C(=O)N[C@@H](CC(C)C)C(=O)N[C@@H](CCCNC(=N)N)C(=O)N[C@@H](Cc1c[nH]cn1)C(=O)NCC(=O)N[C@H](C(=O)N[C@@H](Cc1ccc(O)cc1)C(=O)N[C@H](C(=O)N[C@@H](CCCNC(=N)N)C(=O)N[C@H](C(=O)N[C@H](C(=O)N[C@@H](Cc1ccccc1)C(=O)O)[C@@H](C)O)[C@@H](C)CC)C(C)C)C(C)C)C(C)C)C(C)C` [HfBRI-28] (H-GWLKSIWKGIKKAVKWVLRHGVYVRITF-OH) the “Increase in MIC in the presence of serum” value (Escherichia coli ML-35p) was “four- to eight-fold”, the “Hemolytic effect on human red blood cells” value [1] was “strong hemolytic effect” and the “RP-HPLC Retention Time” value (RP-HPLC retention time) was 40.5 min. For the same compound, the Membrane damage [2] was “effectively damaged membranes”.
For `O=C(O)c1cn(C2CC2)c2cc(N3CCNCC3)c(F)cc2c1=O` [ciprofloxacin, reference compound], the “Survival / therapeutic efficacy” value (E. coli ATCC 25922) was “survival of all mice” and the “Anti-biofilm efficiency (bacterial viability inside established biofilm)” value [3] was “high efficiency at a wide concentration range”.
In the case of `CC[C@H](C)[C@@H]1NC(=O)[C@H](Cc2c[nH]c3ccccc23)NC(=O)[C@H](C(C)C)NC(=O)[C@@H]2CSSC[C@H](NC(=O)[C@H](CCCNC(=N)N)NC(=O)[C@H](CCCNC(=N)N)NC(=O)[C@H](C(C)C)NC(=O)[C@H](CCCNC(=N)N)NC(=O)[C@H](CCCNC(=N)N)NC(=O)CNC(=O)[C@H](CC(N)=O)NC(=O)[C@H](C(C)C)NC(=O)[C@H](CO)NC1=O)C(=O)N[C@@H](Cc1c[nH]c3ccccc13)C(=O)NCC(=O)N[C@@H](CO)C(=O)NCC(=O)N[C@H](C(=O)O)CSSC[C@H](NC(=O)CNC(=O)[C@@H](N)CCCNC(=N)N)C(=O)N[C@@H](Cc1ccccc1)C(=O)N2` [form “b”] (H-RGCFCVWISVNGRRVRRCWGSGC-OH; disulfide 3-23, 5-18; N-terminus and C-terminus assumed), the “a/b (%), ratio of the peptide forms in serum” value (“a/b (%), ratio” below) ([4]; time 0 h) is reported as 0%, the “a/b (%), ratio” value ([4]; time 1 h) is reported as 61% and the “a/b (%), ratio” value ([4]; time 3 h) is reported as 94%. For the same compound, the “a/b (%), ratio” value ([4]; time 24 h) was 100%.
For SPRGCFCVWISVNGRRVRRCWGSGC, the fragment found (trypsin) was “(4–16), major; also recorded: (19–25), major” and the cleaved bond [5] was “Pro2-R3, major, 1 h”.
With polymyxin B [reference compound] the “Initial MIC value before resistance selection” value (E. coli MDR CI 1057) was 0.125 µM and the “MIC against MCR-1 colistin-resistant strains” value [6] was 2 µM.

— paper PMC10745061 (Marine Drugs, 2023)
